Source: ChEMBL document CHEMBL1201862, “PubChem BioAssay data set” (2004)
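Interpolation was linear, between the two tested concentrations surrounding the appropriate level; five concentrations were tested over 48 hours in 96-well plates. GI50 = concentration required for 50% inhibition of growth.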 The source made the active and inactive calls. Rule as the data show it: active = GI50 up to about 1.1 µM and inactive = higher.

Key:
Experiment in all cases: NCI anticancer screen, dose series, 48 h
786-0 = system: 786-0
A498 = system: A498
A549 = system: A549
ACHN = system: ACHN
BT-549 = system: BT-549
CAKI-1 = system: CAKI-1
CCRF-CEM = system: CCRF-CEM
COLO 205 = system: COLO 205
DU-145 = system: DU-145
EKVX = system: EKVX
HCC 2998 = system: HCC 2998
HCT-116 = system: HCT-116
HCT-15 = system: HCT-15
HL-60 = system: HL-60
HOP-62 = system: HOP-62
HOP-92 = system: HOP-92
HT-29 = system: HT-29
Hs-578T = system: Hs-578T
IGROV-1 = system: IGROV-1
K562 = system: K562
KM12 = system: KM12
LOX IMVI = system: LOX IMVI
M14 = system: M14
MCF7 = system: MCF7
MDA-MB-231 = system: MDA-MB-231
MDA-MB-435 = system: MDA-MB-435
MDA-N = system: MDA-N
MOLT-4 = system: MOLT-4
Malme-3M = system: Malme-3M
NCI-H226 = system: NCI-H226
NCI-H23 = system: NCI-H23
NCI-H460 = system: NCI-H460
NCI-H522 = system: NCI-H522
NCI/ADR-RES = system: NCI/ADR-RES
OVCAR-3 = system: OVCAR-3
OVCAR-4 = system: OVCAR-4
OVCAR-5 = system: OVCAR-5
OVCAR-8 = system: OVCAR-8
PC-3 = system: PC-3
RPMI-8226 = system: RPMI-8226
RXF 393 = system: RXF 393
SF-268 = system: SF-268
SF-295 = system: SF-295
SK-MEL-28 = system: SK-MEL-28
SK-MEL-5 = system: SK-MEL-5
SK-OV-3 = system: SK-OV-3
SNB-19 = system: SNB-19
SNB-75 = system: SNB-75
SR = system: SR
SW-620 = system: SW-620
TK-10 = system: TK-10
U-251 = system: U-251
UACC-257 = system: UACC-257
UACC-62 = system: UACC-62
UO-31 = system: UO-31
SF-539 = system: SF-539
SK-MEL-2 = system: SK-MEL-2
SN12C = system: SN12C
T47D = system: T47D

For `N/C(=N\c1ccc(Cl)cc1)c1ccccc1N`, the GI50 (786-0) was > 100 µM (inactive), the GI50 (A498) was > 100 µM (inactive) and the GI50 (A549) was > 100 µM (inactive). For the same molecule, the GI50 (ACHN) was > 100 µM (inactive), the GI50 (BT-549) was > 100 µM (inactive) and the GI50 (CAKI-1) was > 100 µM (inactive). The GI50 (CCRF-CEM) was > 100 µM (inactive), the GI50 (COLO 205) was > 100 µM (inactive) and the GI50 (DU-145) was > 100 µM (inactive). For the same molecule, the GI50 (EKVX) was > 100 µM (inactive), the GI50 (HCC 2998) was > 100 µM (inactive) and the GI50 (HCT-116) was > 100 µM (inactive). For the same molecule, the GI50 (HCT-15) was > 100 µM, the GI50 (HL-60) was > 100 µM (inactive) and the GI50 (HOP-62) was > 100 µM (inactive). The GI50 (HOP-92) was 3.82 µM (inactive), the GI50 (HT-29) was > 100 µM (inactive) and the GI50 (Hs-578T) was > 100 µM (inactive). The GI50 (IGROV-1) was > 100 µM (inactive), the GI50 (K562) was > 100 µM (inactive) and the GI50 (KM12) was > 100 µM (inactive). For the same molecule, the GI50 (LOX IMVI) was > 100 µM (inactive), the GI50 (M14) was > 100 µM (inactive) and the GI50 (MCF7) was > 100 µM (inactive). The GI50 (MDA-MB-231) was > 100 µM (inactive), the GI50 (MDA-MB-435) was > 100 µM (inactive) and the GI50 (MDA-N) was > 100 µM (inactive). The GI50 (MOLT-4) was > 100 µM (inactive), the GI50 (Malme-3M) was > 100 µM (inactive) and the GI50 (NCI-H226) was > 100 µM (inactive). For the same molecule, the GI50 (NCI-H23) was > 100 µM (inactive), the GI50 (NCI-H460) was > 100 µM (inactive) and the GI50 (NCI-H522) was > 100 µM (inactive). For the same molecule, the GI50 (NCI/ADR-RES) was > 100 µM (inactive), the GI50 (OVCAR-3) was > 100 µM (inactive) and the GI50 (OVCAR-4) was > 100 µM (inactive). The GI50 (OVCAR-5) was > 100 µM (inactive), the GI50 (OVCAR-8) was > 100 µM (inactive) and the GI50 (PC-3) was > 100 µM (inactive). The GI50 (RPMI-8226) was > 100 µM (inactive), the GI50 (RXF 393) was > 100 µM (inactive) and the GI50 (SF-268) was > 100 µM (inactive). For the same molecule, the GI50 (SF-295) was > 100 µM (inactive), the GI50 (SK-MEL-28) was > 100 µM (inactive) and the GI50 (SK-MEL-5) was > 100 µM (inactive). For the same molecule, the GI50 (SK-OV-3) was > 100 µM (inactive), the GI50 (SNB-19) was > 100 µM (inactive) and the GI50 (SNB-75) was > 100 µM (inactive). The GI50 (SR) was > 100 µM (inactive), the GI50 (SW-620) was > 100 µM (inactive) and the GI50 (TK-10) was > 100 µM (inactive). For the same molecule, the GI50 (U-251) was > 100 µM (inactive), the GI50 (UACC-257) was > 100 µM (inactive) and the GI50 (UACC-62) was > 100 µM (inactive). For the same molecule, the GI50 (UO-31) was > 100 µM (inactive).

With `CCSc1nc(N2CCOCC2)c2cn[nH]c2n1` the GI50 (786-0) was > 100 µM (inactive), the GI50 (A498) was 4.6 µM (inactive) and the GI50 (A549) was 76.9 µM (inactive). For the same molecule, the GI50 (ACHN) was 31.7 µM (inactive), the GI50 (BT-549) was 82.2 µM (inactive) and the GI50 (CAKI-1) was 28.2 µM (inactive). The GI50 (CCRF-CEM) was 60.5 µM (inactive), the GI50 (COLO 205) was 39.7 µM (inactive) and the GI50 (DU-145) was > 100 µM (inactive). The GI50 (EKVX) was > 100 µM (inactive), the GI50 (HCC 2998) was > 100 µM (inactive) and the GI50 (HCT-116) was > 100 µM (inactive). The GI50 (HCT-15) was 65.5 µM, the GI50 (HL-60) was > 100 µM (inactive) and the GI50 (HOP-62) was > 100 µM (inactive). For the same molecule, the GI50 (HOP-92) was 48 µM (inactive), the GI50 (HT-29) was > 100 µM (inactive) and the GI50 (Hs-578T) was 33.9 µM (inactive). The GI50 (IGROV-1) was 9.64 µM (inactive), the GI50 (K562) was > 100 µM (inactive) and the GI50 (KM12) was 58.9 µM (inactive). For the same molecule, the GI50 (LOX IMVI) was 32.4 µM (inactive), the GI50 (M14) was > 100 µM (inactive) and the GI50 (MCF7) was 44.9 µM (inactive). The GI50 (MDA-MB-231) was > 100 µM (inactive), the GI50 (MDA-MB-435) was 41.8 µM (inactive) and the GI50 (MOLT-4) was > 100 µM (inactive). For the same molecule, the GI50 (Malme-3M) was > 100 µM (inactive), the GI50 (NCI-H226) was > 100 µM (inactive) and the GI50 (NCI-H23) was 48.1 µM (inactive). For the same molecule, the GI50 (NCI-H460) was 49.9 µM (inactive), the GI50 (NCI-H522) was 35 µM (inactive) and the GI50 (NCI/ADR-RES) was > 100 µM (inactive). The GI50 (OVCAR-3) was 52.1 µM (inactive), the GI50 (OVCAR-4) was 62.5 µM (inactive) and the GI50 (OVCAR-5) was 77.4 µM (inactive). For the same molecule, the GI50 (OVCAR-8) was > 100 µM (inactive), the GI50 (PC-3) was 22.1 µM (inactive) and the GI50 (RPMI-8226) was 37.5 µM (inactive). For the same molecule, the GI50 (RXF 393) was > 100 µM (inactive), the GI50 (SF-268) was > 100 µM (inactive) and the GI50 (SF-295) was 54.8 µM (inactive). For the same molecule, the GI50 (SF-539) was > 100 µM (inactive), the GI50 (SK-MEL-28) was 88.5 µM (inactive) and the GI50 (SK-MEL-2) was 41.5 µM (inactive). For the same molecule, the GI50 (SK-MEL-5) was 50.6 µM (inactive), the GI50 (SK-OV-3) was 86.3 µM (inactive) and the GI50 (SN12C) was 52.5 µM (inactive). The GI50 (SNB-19) was > 100 µM (inactive), the GI50 (SNB-75) was 71.1 µM (inactive) and the GI50 (SR) was 56.1 µM (inactive). For the same molecule, the GI50 (SW-620) was > 100 µM (inactive), the GI50 (T47D) was 9.73 µM (inactive) and the GI50 (TK-10) was 47.8 µM (inactive). For the same molecule, the GI50 (U-251) was > 100 µM (inactive), the GI50 (UACC-257) was > 100 µM (inactive) and the GI50 (UACC-62) was 20.7 µM (inactive). The GI50 (UO-31) was 21.5 µM (inactive).
